Experimental data: patent publication US9273033B2, “Substituted pyridone derivatives as PDE10 inhibitors” (Merck Sharp & Dohme Corp., priority 2012, dated 2016)

What follows are compounds tested against human PDE10A2 (Homo sapiens (Human), UniProt Q9Y233) (assay: PDE10 fluorescence polarization (IMAP FP) inhibition assay). Settings: human PDE10A2, FAM-labeled cAMP substrate, read-out: PDE10A Ki.
Format: biochemical
Outline: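 Cytoplasmic lysate of AD293 cells transiently expressing human PDE10A2 (diluted to ~20% substrate conversion) incubated 30 min at room temperature with 50 nM FAM-cAMP in Tris pH 7.2 buffer with MgCl2, DTT. Activity read by IMAP fluorescence polarization. 0% inhibition set with 1% DMSO, 100% with reference PDE10 inhibitor.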

Sequence of human PDE10A2 (Q9Y233 267-1055): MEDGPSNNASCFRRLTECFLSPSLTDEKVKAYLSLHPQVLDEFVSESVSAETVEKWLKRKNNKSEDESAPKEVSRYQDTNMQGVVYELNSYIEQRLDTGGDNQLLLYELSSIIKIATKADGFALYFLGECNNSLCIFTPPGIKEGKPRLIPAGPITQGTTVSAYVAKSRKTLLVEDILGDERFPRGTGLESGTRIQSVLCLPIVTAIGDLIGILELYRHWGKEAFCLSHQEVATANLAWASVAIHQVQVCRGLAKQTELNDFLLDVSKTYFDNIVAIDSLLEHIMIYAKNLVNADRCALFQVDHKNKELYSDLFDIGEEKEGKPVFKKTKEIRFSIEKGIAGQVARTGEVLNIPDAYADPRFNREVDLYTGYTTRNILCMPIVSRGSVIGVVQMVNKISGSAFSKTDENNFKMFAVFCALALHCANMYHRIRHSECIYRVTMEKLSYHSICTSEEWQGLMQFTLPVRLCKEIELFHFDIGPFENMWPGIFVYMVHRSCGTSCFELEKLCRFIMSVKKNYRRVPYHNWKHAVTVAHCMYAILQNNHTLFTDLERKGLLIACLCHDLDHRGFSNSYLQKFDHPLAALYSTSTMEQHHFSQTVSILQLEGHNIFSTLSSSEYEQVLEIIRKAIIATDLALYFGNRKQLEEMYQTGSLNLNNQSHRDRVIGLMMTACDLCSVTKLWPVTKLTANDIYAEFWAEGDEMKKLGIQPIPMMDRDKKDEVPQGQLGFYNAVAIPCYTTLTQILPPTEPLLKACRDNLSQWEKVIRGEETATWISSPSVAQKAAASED

Ki	SMILES
4.42 nM	COc1ccc([C@H]2C[C@@H]2COc2nc(C)ncc2-c2ccc(=O)[nH]n2)nc1 [Example 63, 6-(4-(((1S,2S)-2-(5-methoxypyridin-2-yl)cyclopropyl)methoxy)-2-methylpyrimidin-5-yl)pyridazin-3(2H)-one]
0.481 nM	Cc1ncc(-c2ccc(=O)n(C)c2C)c(OC[C@H]2C[C@@H]2c2ccc3c(n2)CCC3)n1 [Example 58, 5-(4-(((1S,2S)-2-(6,7-dihydro-5H-cyclopenta[b]pyridin-2-yl)cyclopropyl)methoxy)-2-methylpyrimidin-5-yl)-1,6-dimethylpyridin-2(1H)-one]
0.64 nM	COc1ccc([C@H]2C[C@@H]2COc2nc(C)ncc2-c2ccn(CCO)c(=O)c2)nc1 [Example 127, 1-(2-hydroxyethyl)-4-(4-(((1S,2S)-2-(5-methoxypyridin-2-yl)cyclopropyl)methoxy)-2-methylpyrimidin-5-yl)pyridin-2(1H)-one]
0.006 nM	Cc1ncc(-c2ccc(=O)n(C)c2C)c(OC[C@H]2C[C@@H]2c2ccc3ccccc3n2)n1 [Example 34, 1,6-dimethyl-5-(2-methyl-4-(((1S,2S)-2-(quinolin-2-yl)cyclopropyl)methoxy)pyrimidin-5-yl)pyridin-2(1H)-one]
0.045 nM	COc1cc(-c2cnc(C)nc2OC[C@H]2C[C@@H]2c2ccc3c(n2)CCC3)cn(C)c1=O [Example 54, 5-(4-(((1S,2S)-2-(6,7-dihydro-5H-cyclopenta[b]pyridin-2-yl)cyclopropyl)methoxy)-2-methylpyrimidin-5-yl)-3-methoxy-1-methylpyridin-2(1H)-one]
0.216 nM	Cc1ncc(-c2ccc(=O)n(-c3ccccc3)c2)c(OC[C@H]2C[C@@H]2c2ccc3ccccc3n2)n1 [Example 10, 5-(2-methyl-4-(((1S,2S)-2-(quinolin-2-yl)cyclopropyl)methoxy)pyrimidin-5-yl)-1-phenylpyridin-2(1H)-one]
0.439 nM	COCCn1ccc(-c2cnc(C)nc2OC[C@H]2C[C@@H]2c2ccc(C)cn2)cc1=O [Example 85, 1-(2-methoxyethyl)-4-(2-methyl-4-(((1S,2S)-2-(5-methylpyridin-2-yl)cyclopropyl)methoxy)pyrimidin-5-yl)pyridin-2(1H)-one]
0.728 nM	COc1ccc([C@H]2C[C@@H]2COc2nc(C)ncc2-c2cnn(C)c(=O)c2Cl)nc1 [Example 137, 4-chloro-5-(4-(((1S,2S)-2-(5-methoxypyridin-2-yl)cyclopropyl)methoxy)-2-methylpyrimidin-5-yl)-2-methylpyridazin-3(2H)-one]
1.54 nM	COc1ccc([C@H]2C[C@@H]2COc2nc(C)ncc2-c2ccn(C)c(=O)c2)nc1 [Example 128, 4-(4-(((1S,2S)-2-(5-methoxypyridin-2-yl)cyclopropyl)methoxy)-2-methylpyrimidin-5-yl)-1-methylpyridin-2(1H)-one]
0.583 nM	COc1ccc([C@H]2C[C@@H]2COc2nc(C)ncc2-c2cc(=O)n(C)cc2C2CC2)nc1 [Example 132, 5-cyclopropyl-4-(4-(((1S,2S)-2-(5-methoxypyridin-2-yl)cyclopropyl)methoxy)-2-methylpyrimidin-5-yl)-1-methylpyridin-2(1H)-one]
0.409 nM	Cc1ccc([C@H]2C[C@@H]2COc2nc(C)ncc2-c2cc(C)c(=O)n(C)c2)nc1 [Example 40, 1,3-dimethyl-5-(2-methyl-4-(((1S,2S)-2-(5-methylpyridin-2-yl)cyclopropyl)methoxy)pyrimidin-5-yl)pyridin-2(1H)-one]
1.58 nM	Cc1ccc([C@H]2C[C@@H]2COc2nc(C)ncc2-c2ccn(CCC#N)c(=O)c2)nc1 [Example 119, 3-(4-(2-methyl-4-(((1S,2S)-2-(5-methylpyridin-2-yl)cyclopropyl)methoxy)pyrimidin-5-yl)-2-oxopyridin-1(2H)-yl)propanenitrile]
0.74 nM	Cc1ccc([C@H]2C[C@@H]2COc2nc(C)ncc2-c2ccn(CC(F)(F)F)c(=O)c2)nc1 [Example 105, 4-(2-methyl-4-(((1S,2S)-2-(5-methylpyridin-2-yl)cyclopropyl)methoxy)pyrimidin-5-yl)-1-(2,2,2-trifluoroethyl)pyridin-2(1H)-one]
1.01 nM	Cc1ccc([C@H]2C[C@@H]2COc2nc(C)ncc2-c2cc(=O)[nH]cc2C)nc1 [Example 71, 5-methyl-4-(2-methyl-4-(((1S,2S)-2-(5-methylpyridin-2-yl)cyclopropyl)methoxy)pyrimidin-5-yl)pyridin-2(1H)-one]
0.394 nM	COC(=O)Cn1ccc(-c2cnc(C)nc2OC[C@H]2C[C@@H]2c2ccc(C)cn2)cc1=O [Example 129, methyl 2-(4-(2-methyl-4-(((1S,2S)-2-(5-methylpyridin-2-yl)cyclopropyl)methoxy)pyrimidin-5-yl)-2-oxopyridin-1(2H)-yl)acetate]
0.217 nM	Cc1ccc([C@H]2C[C@@H]2COc2nc(C)ncc2-c2ccc(=O)n(C)c2C)nc1 [Example 3, 1,6-dimethyl-5-(2-methyl-4-(((1S,2S)-2-(5-methylpyridin-2-yl)cyclopropyl)methoxy)pyrimidin-5-yl)pyridin-2(1H)-one]

Ki	SMILES
0.035 nM	Cc1ncc(-c2cc(=O)n(C)cc2C)c(OC[C@H]2C[C@@H]2c2ccc3ccccc3n2)n1 [Example 76, 1,5-dimethyl-4-(2-methyl-4-(((1S,2S)-2-(quinolin-2-yl)cyclopropyl)methoxy)pyrimidin-5-yl)pyridin-2(1H)-one]
8.38 nM	Cc1ncc(-c2cc(=O)[nH]cc2C)c(OC[C@H]2C[C@@H]2c2ccccn2)n1 [Example 75, 5-methyl-4-(2-methyl-4-(((1S,2S)-2-(pyridin-2-yl)cyclopropyl)methoxy)pyrimidin-5-yl)pyridin-2(1H)-one]
3.06 nM	COCCn1c(C)c(-c2cnc(C)nc2OC[C@H]2C[C@@H]2c2ccc(C)cn2)ccc1=O [Example 7, 1-(2-methoxyethyl)-6-methyl-5-(2-methyl-4-(((1S,2S)-2-(5-methylpyridin-2-yl)cyclopropyl)methoxy)pyrimidin-5-yl)pyridin-2(1H)-one]
1.06 nM	Cc1ccc([C@H]2C[C@@H]2COc2nc(C)ncc2-c2ccn(CC#N)c(=O)c2)nc1 [Example 120, 2-(4-(2-methyl-4-(((1S,2S)-2-(5-methylpyridin-2-yl)cyclopropyl)methoxy)pyrimidin-5-yl)-2-oxopyridin-1(2H)-yl)acetonitrile]
0.012 nM	COCCn1ccc(-c2cnc(C)nc2OC[C@H]2C[C@@H]2c2ccc3ccccc3n2)cc1=O [Example 100, 1-(2-methoxyethyl)-4-(2-methyl-4-(((1S,2S)-2-(quinolin-2-yl)cyclopropyl)methoxy)pyrimidin-5-yl)pyridin-2(1H)-one]
5.55 nM	COc1ccc([C@H]2C[C@@H]2COc2nc(C)ncc2-c2nn(C)c(=O)cc2C)nc1 [Example 67, 6-(4-(((1S,2S)-2-(5-methoxypyridin-2-yl)cyclopropyl)methoxy)-2-methylpyrimidin-5-yl)-2,5-dimethylpyridazin-3(2H)-one]
0.821 nM	COCCn1cc(-c2cnc(C)nc2OC[C@H]2C[C@@H]2c2ccc(OC)cn2)ccc1=O [Example 39, 1-(2-methoxyethyl)-5-(4-(((1S,2S)-2-(5-methoxypyridin-2-yl)cyclopropyl)methoxy)-2-methylpyrimidin-5-yl)pyridin-2(1H)-one]
0.496 nM	COc1ccc([C@H]2C[C@@H]2COc2nc(C)ncc2-c2cc(=O)n(C)cc2C)nc1 [Example 82, 4-(4-(((1S,2S)-2-(5-methoxypyridin-2-yl)cyclopropyl)methoxy)-2-methylpyrimidin-5-yl)-1,5-dimethylpyridin-2(1H)-one]
0.727 nM	COc1ccc([C@H]2C[C@@H]2COc2nc(C)ncc2-c2cc(C)c(=O)n(C)c2)nc1 [Example 38, 5-(4-(((1S,2S)-2-(5-methoxypyridin-2-yl)cyclopropyl)methoxy)-2-methylpyrimidin-5-yl)-1,3-dimethylpyridin-2(1H)-one]
1.1 nM	CCn1cc(-c2cnc(C)nc2OC[C@H]2C[C@@H]2c2ccc(C)cn2)ccc1=O [Example 5, 1-ethyl-5-(2-methyl-4-(((1S,2S)-2-(5-methylpyridin-2-yl)cyclopropyl)methoxy)pyrimidin-5-yl)pyridin-2(1H)-one]
88.4 nM	Cc1ncc(-c2ccn(C)c(=O)c2)c(OC[C@@H]2C[C@H]2c2ccc(F)cn2)n1 [Example 84, 4-(4-(((1R,2R)-2-(5-fluoropyridin-2-yl)cyclopropyl)methoxy)-2-methylpyrimidin-5-yl)-1-methylpyridin-2(1H)-one]
0.045 nM	CCn1c(C)c(-c2cnc(C)nc2OC[C@H]2C[C@@H]2c2ccc3ccccc3n2)ccc1=O [Example 36, 1-ethyl-6-methyl-5-(2-methyl-4-(((1S,2S)-2-(quinolin-2-yl)cyclopropyl)methoxy)pyrimidin-5-yl)pyridin-2(1H)-one]
0.75 nM	CCn1ccc(-c2cnc(C)nc2OC[C@H]2C[C@@H]2c2ccc(OC)cn2)cc1=O [Example 95, 1-ethyl-4-(4-(((1S,2S)-2-(5-methoxypyridin-2-yl)cyclopropyl)methoxy)-2-methylpyrimidin-5-yl)pyridin-2(1H)-one]
16.6 nM	Cc1ncc(-c2cc(=O)n(C)cc2C)c(OC[C@H]2C[C@@H]2c2ccccn2)n1 [Example 74, 1,5-dimethyl-4-(2-methyl-4-(((1S,2S)-2-(pyridin-2-yl)cyclopropyl)methoxy)pyrimidin-5-yl)pyridin-2(1H)-one]
9.68 nM	Cc1ccc([C@H]2C[C@@H]2COc2nc(C)ncc2-c2nn(C)c(=O)cc2C)nc1 [Example 68, 2,5-dimethyl-6-(2-methyl-4-(((1S,2S)-2-(5-methylpyridin-2-yl)cyclopropyl)methoxy)pyrimidin-5-yl)pyridazin-3(2H)-one]
2.3 nM	COc1ccc([C@H]2C[C@@H]2COc2nc(C)ncc2-c2ccc(=O)n(CC(F)F)c2)nc1 [Example 44, 1-(2,2-difluoroethyl)-5-(4-(((1S,2S)-2-(5-methoxypyridin-2-yl)cyclopropyl)methoxy)-2-methylpyrimidin-5-yl)pyridin-2(1H)-one]
